Test results reported in article PMC4364341, “NBD delivery improves the disease phenotype of the golden retriever model of Duchenne muscular dystrophy” (Skeletal Muscle, 2014).

Columns and labels:
GRMD dogs = experiment: MRI of proximal pelvic limb muscles, GRMD dogs; assay type: in vivo, dog; parameters: MRI T2 mapping value: unit not given here; details: 6 months, NBD 10 mg/kg IV 3x weekly for 4 months, n = 6
Source text: Studies were done on a Siemens 3 T Allegra Head-Only MRI scanner with a circular polarization (CP) head coil or Siemens 3 T Tim Trio Whole-Body MRI scanner with a 32-channel body coil at the UNC-CH Biomedical Research Imaging Center (BRIC). Dogs were anesthetized (above), placed on an MRI gantry in the sternal (prone) position with the pelvic limbs extended, and positioned in the coil centered at the midpoint of the femur. The proximal pelvic limbs from the coxofemoral joint to the stifle were imaged bilaterally. Scans were completed using a published protocol. T2-weighted image sequences without (T2w) and with fat saturation (T2fs) were acquired using a variable-flip-angle turbo spin echo (TSE) sequence. The time between the excitation pulse and the center of k-space was 400 ms. Importantly, the contrast was not determined only by the TE (400 ms), but also by the flip angle evolution scheme. Although a traditional TSE sequence would have very little signal at 400 ms, the variable flip angle sequence is similar in principle to hyper-echo. The hyper-echo reduces the specific absorption rate (SAR), while the variable flip angle sequence allows long TE times. A multi-spin-echo T2 (MSE-T2), using a 10-echo Carr-Purcell-Meiboom-Gill sequence, was acquired to calculate the T2 value map. Analysis of the images was completed in three modules: muscle segmentation, pre-processing, and biomarker analysis. As a prerequisite, we first segmented the major proximal pelvic limb muscles in the MRI images. All proximal pelvic limb muscles were segmented but only five slices at the midfemur were analyzed and averaged.
For the sake of this study, the biomarker analysis was limited to muscle volumes, T2 mapping values, and several texture analysis features, including a first-order intensity histogram texture feature (entropy) and two high order run length matrix features (short run emphasis (SRE) and run length non-uniformity (RLN)). These texture analysis features were assessed as potential markers of patchy lesions such as necrosis. Based on the mathematical model, we refer to short run emphasis as the Small Lesion Index (SLI) and non-uniformity as the Heterogeneity Index (HI). Both SLI and HI use the run-length matrix method. Compared to histogram-based biomarkers that use intensity data only, the run-length matrix method also takes into account the spatial distribution and intensity of the voxels. A gray-level ‘run’ is defined as a set of consecutive voxels of similar intensity level in a given direction within a predefined similarity range. This is run in a three-dimensional matrix and is intended to detect lumps of hyper-intensity in MRI. To determine overall muscle scores for T2 and the texture features in each group, the proportional muscle volume was considered, so as to calculate a weighted average.

[1] = dog, in vivo, iv, 10 mg/kg
Protocol: In addition to efficacy, we were interested in examining the safety profile of NBD, since long-term dosing in any animal model had yet to be performed. Blood samples at pre-dose, mid dose, and terminal dose were obtained for hematology and serum chemistry analysis. […] Supplementary file 2044-5040-4-18-S2.jpeg: Additional file 2: Figure S2 Hematologic changes in NBD-treated dogs. Serum was prepared from blood samples obtained at indicated time points prior to and following dosing with NBD in wild type and GRMD dogs. Serum samples were analyzed for complete blood counts (CBC). The graphs show results for white blood cells, red blood cells, and platelet counts. Click here for file Supplementary file 2044-5040-4-18-S3.jpeg: Additional file 3: Figure S3 Clinicopathologic changes in NBD-treated dogs. Serum was prepared from blood samples obtained at indicated time points prior to and following dosing with NBD in wild type and GRMD dogs. Serum samples were analyzed for ALT, AST, GGT, bilirubin, creatinine, potassium, and creatine kinase. Click here for file

wild type and GRMD dogs = details: dog, in vivo
Protocol: NBD peptide (TALDWSWLQTE) fused to an Antennapedia protein transduction domain [9] was generated using an ABI 430A solid-phase peptide synthesizer (Applied Biosystems, Foster City, CA, USA) as previously described. NBD solutions (10 mg/mL) for the canine studies were prepared weekly. Needed volumes were calculated based on the current dog body weights, plus estimated weekly gain averages. Compound was weighed on a laboratory balance to the nearest 0.1 g and reconstituted in sterile water. Solution was then sterile-filtered through 0.22 μm filters into a sterile fluid administration bag and refrigerated at 4°C until use. […] Heart and respiratory rate, mucous membrane color, capillary refill time, and body temperature were monitored throughout the perfusion. […] The syringe pump was initially programed to administer the calculated volume over 10 min, but this was extended to 30 min when reactions were seen. Blood pressure was recorded prior to start of perfusion, at 5-min intervals throughout perfusion, and post-perfusion (Cardell® 9405 Multiparameter Monitor, Midmark Corporation, Versailles, OH, USA). Dogs were monitored for adverse reactions throughout the perfusion and for up to 30 min after completion.

## TALDWSWLQTE [NBD, NBD peptide (…) fused to an Antennapedia protein transduction domain]
GRMD dogs; Adductor
  MRI HI (Heterogeneity Index, run length non-uniformity): 116.2 ± 22.37
  MRI SLI (Small Lesion Index, short run emphasis): 0.72 ± 0.02
  MRI T2 mapping value: 39.52 ± 4.76
GRMD dogs; All muscles (weighted average)
  MRI HI (Heterogeneity Index, run length non-uniformity): 86.01 ± 18.28
  MRI SLI (Small Lesion Index, short run emphasis): 0.70 ± 0.04^^
  MRI T2 mapping value: 47.34 ± 3.10^^
GRMD dogs; Biceps Femoris
  MRI HI (Heterogeneity Index, run length non-uniformity): 87.50 ± 48.42
  MRI SLI (Small Lesion Index, short run emphasis): 0.68 ± 0.06^^
  MRI T2 mapping value: 40.20 ± 4.91^^
GRMD dogs; Caudal Sartorius
  MRI HI (Heterogeneity Index, run length non-uniformity): 35.21 ± 14.92
  MRI SLI (Small Lesion Index, short run emphasis): 0.83 ± 0.05
  MRI T2 mapping value: 53.87 ± 9.88
GRMD dogs; Cranial Sartorius
  MRI SLI (Small Lesion Index, short run emphasis): 0.79 ± 0.05
  MRI T2 mapping value: 49.40 ± 9.01
GRMD dogs; Gracilis
  MRI HI (Heterogeneity Index, run length non-uniformity): 58.90 ± 30.66
  MRI SLI (Small Lesion Index, short run emphasis): 0.70 ± 0.06^^
  MRI T2 mapping value: 45.91 ± 3.50
GRMD dogs; Rectus Femoris
  MRI HI (Heterogeneity Index, run length non-uniformity): 55.42 ± 21.95
  MRI SLI (Small Lesion Index, short run emphasis): 0.68 ± 0.07^^
  MRI T2 mapping value: 37.23 ± 4.72
GRMD dogs; Semimembranosus
  MRI HI (Heterogeneity Index, run length non-uniformity): 78.15 ± 33.31
  MRI SLI (Small Lesion Index, short run emphasis): 0.68 ± 0.06
  MRI T2 mapping value: 39.42 ± 4.86
GRMD dogs; Semitendinosus
  MRI HI (Heterogeneity Index, run length non-uniformity): 81.43 ± 35.00
  MRI SLI (Small Lesion Index, short run emphasis): 0.67 ± 0.08^^
  MRI T2 mapping value: 40.41 ± 4.97^^
GRMD dogs; Vastus Intermedius
  MRI HI (Heterogeneity Index, run length non-uniformity): 59.10 ± 27.19
  MRI SLI (Small Lesion Index, short run emphasis): 0.68 ± 0.09
  MRI T2 mapping value: 41.91 ± 5.91^^
GRMD dogs; Vastus Lateralis
  MRI HI (Heterogeneity Index, run length non-uniformity): 52.92 ± 27.20
  MRI SLI (Small Lesion Index, short run emphasis): 0.68 ± 0.04^^
  MRI T2 mapping value: 40.67 ± 5.84^^
GRMD dogs; Vastus Medialis
  MRI HI (Heterogeneity Index, run length non-uniformity): 52.55 ± 22.29
  MRI SLI (Small Lesion Index, short run emphasis): 0.77 ± 0.09
  MRI T2 mapping value: 42.74 ± 5.65
[1]
  Hematology and serum chemistry analysis: no adverse effects
Wild type and GRMD dogs
  Blood pressure during administration: decreased
Wild type and GRMD dogs; iv, 10 mg/kg
  Onset of infusion reactions (time of treatment): approximately 1 month
